The text below walks through data of patent publication US5612350A, “Macrocyclic immunomodulators with novel cyclohexyl ring replacements” (Abbott Laboratories, priority 1995, dated 1997).

The test deals with human mixed lymphocyte reaction (MLR). Kind of test: human mixed lymphocyte reaction (MLR) assay, immunosuppressant activity. Type of test: cell-based. Particulars: for IC50: Table 1. How it is done: In Vitro Assay of Biological Activity
The immunosuppressant activity of the compounds of the present invention was determined using the human mixed lymphocyte reaction (MLR) assay described by. T. Kinoet al. in Transplantation Proceedings, XIX(5):36-39, Suppl. 6 (1987).

`CC[C@@H]1/C=C(\C)C[C@H](C)C[C@H](OC)[C@H]2O[C@@](O)(C(=O)C(=O)N3CCCC[C@H]3C(=O)O[C@H](/C(C)=C/[C@@H](CCO)CCC(=O)N3CCOCC3)[C@H](C)[C@@H](O)CC1=O)[C@H](C)C[C@@H]2OC` [Example 15]: the inhibition at 1 µM (Table 1, at 1 × 10^-6 (M), read-out: 25% at 1 × 10^-6 (in the IC50 (M) column)) was 25%.

Compound `CC[C@@H]1/C=C(\C)C[C@H](C)C[C@H](OC)[C@H]2O[C@@](O)(C(=O)C(=O)N3CCCC[C@H]3C(=O)O[C@H](/C(C)=C/[C@@H](CCO)CCC(=O)NCCO)[C@H](C)[C@@H](O)CC1=O)[C@H](C)C[C@@H]2OC` [Example 9] had an IC50 of 65 nM.

Turning to `CC[C@@H]1/C=C(\C)C[C@H](C)C[C@H](OC)[C@H]2O[C@@](O)(C(=O)C(=O)N3CCCC[C@H]3C(=O)O[C@H](/C(C)=C/C3CCN(C(=O)N4CCOCC4)CC3)[C@H](C)[C@@H](O)CC1=O)[C@H](C)C[C@@H]2OC` [Example 56], the IC50 amounted to 2.6 nM.

With `CC[C@@H]1/C=C(\C)C[C@H](C)C[C@H](OC)[C@H]2O[C@@](O)(C(=O)C(=O)N3CCCC[C@H]3C(=O)O[C@H](/C(C)=C/[C@H]3CCOC(=O)CC3)[C@H](C)[C@@H](O)CC1=O)[C@H](C)C[C@@H]2OC` [Example 11], the concentration for half-maximal inhibition (IC50) is 1.1 nM. Compared with the last compound, the IC50 is about 2.4-fold lower.

`CC[C@@H]1/C=C(\C)C[C@H](C)C[C@H](OC)[C@H]2O[C@@](O)(C(=O)C(=O)N3CCCC[C@H]3C(=O)O[C@H](/C(C)=C/[C@@H](CCO)CCC(=O)NCc3ccccc3)[C@H](C)[C@@H](O)CC1=O)[C@H](C)C[C@@H]2OC` [Example 7] yielded an IC50 of 23 nM.

Consider `CC[C@@H]1/C=C(\C)C[C@H](C)C[C@H](OC)[C@H]2O[C@@](O)(C(=O)C(=O)N3CCCC[C@H]3C(=O)O[C@H](/C(C)=C/[C@@H]3CCNC(=O)OCC3)[C@H](C)[C@@H](O)CC1=O)[C@H](C)C[C@@H]2OC` [Example 37], for which the IC50 came to 0.57 nM.

On to `CCCNC(=O)CC[C@@H](/C=C(\C)[C@H]1OC(=O)[C@@H]2CCCCN2C(=O)C(=O)[C@]2(O)O[C@H]([C@@H](OC)C[C@@H](C)C/C(C)=C/[C@@H](CC)C(=O)C[C@H](O)[C@H]1C)[C@@H](OC)C[C@H]2C)CCO` [Example 13], for which the IC50 is 388 nM.

`CC[C@@H]1/C=C(\C)C[C@H](C)C[C@H](OC)[C@H]2O[C@@](O)(C(=O)C(=O)N3CCCC[C@H]3C(=O)O[C@H](/C(C)=C/[C@@H]3CCC(=O)N4CCSC4C3)[C@H](C)[C@@H](O)CC1=O)[C@H](C)C[C@@H]2OC` (some centres unmarked) [Example 39]: inhibition was half-maximal at 37 nM (IC50).

Usually IC50 stands for the midpoint of a concentration-inhibition curve. A lower IC50 goes with greater potency in that assay.
